{"source": "patent US20260206762A1", "about": "“PYRIMIDINONE DERIVATIVES AS PESTICIDAL COMPOUNDS” (BASF SE, priority 2022, published 2026)", "key": {"[1]": {"tested_on": "diamond back moth (Plutella xylostella)", "experiment": "Diamond back moth (Plutella xylostella) cabbage leaf disc dip test", "format": "in vivo", "conditions": "for Test according to B.4 (Plutella xylostella) @ 10 ppm: comparison data; for mortality at 800 ppm: Plutella xylostella, foliar, 3rd instar larvae, 72 hours after treatment, read-out: mortality in comparison with untreated controls", "procedure": "B.4 Diamond Back Moth (Plutella xylostella)\nThe active compound is dissolved at the desired concentration in a mixture of 1:1 (vol:vol) distilled water: acetone. Surfactant (Kinetic) is added at a rate of 0.01% (vol/vol). The test solution is prepared at the day of use. Cabbage leaf discs (60 mm in diameter) are dipped in test solution and air-dried. Treated leaves are placed in petri dishes lined with moistened filter paper and inoculated with ten 3rd instar larvae. Mortality is recorded 72 hours after treatment. Feeding damage is also recorded using a scale of 0-100%."}, "[2]": {"tested_on": "boll weevil (Anthonomus grandis)", "experiment": "Boll weevil (Anthonomus grandis) microtiter diet test, egg and larval mortality", "format": "in vivo", "conditions": "120 h, egg and larval mortality after 5 days, read-out: mortality in comparison with untreated controls", "procedure": "B.1 Boll Weevil (Anthonomus grandis)\n(§1) For evaluating control of boll weevil (Anthonomus grandis) the test unit consisted of 96-well-microtiter plates containing an insect diet and 5-10 A. grandis eggs. The compounds were formulated using a solution containing 75% v/v water and 25% v/v DMSO. Different concentrations of formulated compounds were sprayed onto the insect diet at 5 μl, using a custom-built micro atomizer, at two replications. After application, microtiter plates were incubated at about 25±1° C. and about 75±5% relative humidity for 5 days. Egg and larval mortality was then visually assessed."}, "[3]": {"tested_on": "green peach aphid (Myzus persicae)", "experiment": "Green peach aphid (Myzus persicae) systemic artificial diet test", "format": "in vivo", "conditions": "72 h, aphid mortality after 3 days, read-out: mortality in comparison with untreated controls", "source_text": "B.3 Green Peach Aphid (Myzus persicae)\nFor evaluating control of green peach aphid (Myzus persicae) through systemic means the test unit consisted of 96-well-microtiter plates containing liquid artificial diet under an artificial membrane. The compounds were formulated using a solution containing 75% v/v water and 25% v/v DMSO. Different concentrations of formulated compounds were pipetted into the aphid diet, using a custom built pipetter, at two replications. After application, 5-8 adult aphids were placed on the artificial membrane inside the microtiter plate wells. The aphids were then allowed to suck on the treated aphid diet and incubated at about 23±1° C. and about 50±5% relative humidity for 3 days. Aphid mortality and fecundity was then visually assessed."}, "[4]": {"tested_on": "tobacco budworm (Heliothis virescens)", "experiment": "Tobacco budworm (Heliothis virescens) microtiter diet test, egg and larval mortality", "format": "in vivo", "conditions": "120 h, egg and larval mortality after 5 days, read-out: mortality in comparison with untreated controls", "procedure": "B.2 Tobacco Budworm (Heliothis virescens)\nas §1, with “of tobacco budworm (Heliothis virescens)” for “of boll weevil (Anthonomus grandis)”, “and 15-25 H. virescens” for “and 5-10 A. grandis”, “at 10” for “at 5”, “about 28±1°” for “about 25±1°”, “about 80±5%” for “about 75±5%”"}, "[5]": {"tested_on": "southern armyworm (Spodoptera eridania), 2nd instar larvae", "experiment": "whole plant or invertebrate", "conditions": "in Phaseolus lunatus, foliar, 96 h, read-out: mortality in comparison with untreated controls", "procedure": "B.5 Southern Armyworm (Spodoptera eridania), 2nd Instar Larvae\nThe 10,000 ppm solution was serially diluted in 100% cyclohexanone to make interim solutions. These served as stock solutions for which final dilutions were made by the Tecan in 50% acetone:50% water (v/v) into 10 or 20 ml glass vials. A nonionic surfactant (Kinetic®) was included in the solution at a volume of 0.01% (v/v). The vials were then inserted into an automated electrostatic sprayer equipped with an atomizing nozzle for application to plants/insects. Lima bean plants (variety Sieva) were grown 2 plants to a pot and selected for treatment at the 1st true leaf stage. Test solutions were sprayed onto the foliage by an automated electrostatic plant sprayer equipped with an atomizing spray nozzle. The plants were dried in the sprayer fume hood and then removed from the sprayer. Each pot was placed into perforated plastic bags with a zip closure. Ten to 11 armyworm larvae were placed into the bag and the bags zipped closed. Test plants were maintained in a growth room at about 25° C. and about 20-40% relative humidity for 4 days, avoiding direct exposure to fluorescent light (14:10 light:dark photoperiod) to prevent trapping of heat inside the bags. Mortality and reduced feeding were assessed 4 days after treatment, compared to untreated control plants."}}, "data": [{"compound": "CCS(=O)(=O)c1cc(C(C)(C)C#N)cnc1-c1cn2c(=O)n(C3CC3)c(C(F)(F)F)cc2n1", "note": "[Compound C.4, reference compound]", "values": [{"measurement": "Test according to B.4 (Plutella xylostella) @ 10 ppm", "setting": "[1]", "value": 25, "unit": "%"}]}, {"compound": "CCS(=O)(=O)c1cc(-c2ccc(F)cc2)cnc1-c1cn2c(=O)n(C3CC3)c(Cl)cc2n1", "note": "[I.1, 7-chloro-6-cyclopropyl-2-[3-ethylsulfonyl-5-(4-fluorophenyl)-2-pyridyl]imidazo[1,2-c]pyrimidin-5-one]", "values": [{"measurement": "mortality at 800 ppm", "setting": "[2]", "value": "> 75", "unit": "%"}, {"measurement": "mortality at 800 ppm", "setting": "[3]", "value": "> 75", "unit": "%"}, {"measurement": "mortality at 800 ppm", "setting": "[4]", "value": "> 75", "unit": "%"}, {"measurement": "mortality at 800 ppm", "setting": "[1]", "value": "> 75", "unit": "%"}, {"measurement": "mortality at 300 ppm", "setting": "[5]", "value": "> 75", "unit": "%"}]}, {"compound": "CCS(=O)(=O)c1cc(C(C)(C)C#N)cnc1-c1cn2c(=O)n(C3CC3)c(Cl)cc2n1", "note": "[I.3]", "values": [{"measurement": "mortality at 800 ppm", "setting": "[2]", "value": "> 75", "unit": "%"}, {"measurement": "mortality at 800 ppm", "setting": "[3]", "value": "> 75", "unit": "%"}, {"measurement": "Test according to B.4 (Plutella xylostella) @ 10 ppm", "setting": "[1]", "value": 100, "unit": "%"}, {"measurement": "mortality at 800 ppm", "setting": "[1]", "value": "> 75", "unit": "%"}, {"measurement": "mortality at 300 ppm", "setting": "[5]", "value": "> 75", "unit": "%"}]}, {"compound": "CCS(=O)(=O)c1cc(-c2ccc(F)cc2)cnc1-c1cn2c(=O)n(C3CC3)c(Br)cc2n1", "note": "[I.4, 7-bromo-6-cyclopropyl-2-[3-ethylsulfonyl-5-(4-fluorophenyl)-2-pyridyl]imidazo[1,2-c]pyrimidin-5-one]", "values": [{"measurement": "mortality at 800 ppm", "setting": "[2]", "value": "> 75", "unit": "%"}, {"measurement": "mortality at 800 ppm", "setting": "[3]", "value": "> 75", "unit": "%"}, {"measurement": "mortality at 800 ppm", "setting": "[4]", "value": "> 75", "unit": "%"}, {"measurement": "mortality at 800 ppm", "setting": "[1]", "value": "> 75", "unit": "%"}, {"measurement": "mortality at 300 ppm", "setting": "[5]", "value": "> 75", "unit": "%"}]}, {"compound": "CCS(=O)(=O)c1cc(-c2ccc(F)cc2)c(C)nc1-c1cn2c(=O)n(C3CC3)c(Cl)cc2n1", "note": "[I.5, 7-chloro-6-cyclopropyl-2-[3-ethylsulfonyl-5-(4-fluorophenyl)-6-methyl-2-pyridyl]imidazo[1,2-c]pyrimidin-5-one]", "values": [{"measurement": "mortality at 800 ppm", "setting": "[2]", "value": "> 75", "unit": "%"}, {"measurement": "mortality at 800 ppm", "setting": "[3]", "value": "> 75", "unit": "%"}, {"measurement": "mortality at 800 ppm", "setting": "[4]", "value": "> 75", "unit": "%"}, {"measurement": "mortality at 800 ppm", "setting": "[1]", "value": "> 75", "unit": "%"}, {"measurement": "mortality at 300 ppm", "setting": "[5]", "value": "> 75", "unit": "%"}]}]}
